From patent publication US4316891A, “Extended N-terminal somatostatin” (The Salk Institute for Biological Studies, priority 1980, dated 1982)
Where a SMILES comes first, the peptide text is derived from it. Bridges are numbered along the chain shown (N, C = ends).

Tests used:
[1] = test system: cells of rat pituitary glands; test: in vitro inhibition of basal growth hormone secretion in rat pituitary cell cultures, side-by-side with somatostatin; assay type: cell-based; conditions: substantially pure peptide, in words
Method: To determine the effectiveness of the peptides to inhibit the release of growth hormone, in vitro assays are carried out using both somatostatin-28and somatostatin-25 in side-by-side comparison with equimolar concentrations of somotostatin having a known effectiveness to inhibit the release of growth hormone by pituitary cells. Cultures are used which include cells of rat pituitary glands removed some four to five days previously. Both cultures of a defined standard medium and cultures which are considered optimal for the secretion of growth hormone, as a result of having additions of either 2% or 10% of serum from a foetal calf, are used for the comparative testing between either somatostatin and somatostatin-28 or between somatostatin and somatostatin-25.
(§1) The statistical analysis of the results is carried out generally in accordance with the EXBIOL program reported in the article by Sakiz, Excerpta Medica, Int. Cong. Ser. No. 83 (1964), pp. 225-229.

[2] = test system: secretion of growth hormone; test: in vivo inhibition of growth hormone secretion stimulated by morphine in rats; conditions: in words
Method: as §1

[3] = juvenile-type diabetics, complete absence of circulating insulin; cited from earlier work

| Compound | potency versus somatostatin in inhibiting the release of GH in vitro [1] | activity versus somatostatin to inhibit growth hormone secretion stimulated by morphine [2] | diminution of fasting hyperglycemia [3] [%] |
| --- | --- | --- | --- |
| CSCC[C@H](NC(=O)[C@H](C)NC(=O)[C@@H]1CCCN1C(=O)[C@H](CC(N)=O)NC(=O)[C@H](CO)NC(=O)[C@H](CC(N)=O)NC(=O)[C@H](C)NC(=O)[C@@H](N)CO)C(=O)N[C@@H](C)C(=O)N1CCC[C@H]1C(=O)N[C@@H](CCCNC(=N)N)C(=O)N[C@@H](CCC(=O)O)C(=O)N[C@@H](CCCNC(=N)N)C(=O)N[C@@H](CCCCN)C(=O)N[C@@H](C)C(=O)NCC(=O)N[C@H]1CSSC[C@@H](C(=O)O)NC(=O)[C@H](CO)NC(=O)[C@H]([C@@H](C)O)NC(=O)[C@H](Cc2ccccc2)NC(=O)[C@H]([C@@H](C)O)NC(=O)[C@H](CCCCN)NC(=O)[C@H](Cc2c[nH]c3ccccc23)NC(=O)[C@H](Cc2ccccc2)NC(=O)[C@H](Cc2ccccc2)NC(=O)[C@H](CC(N)=O)NC(=O)[C@H](CCCCN)NC1=O [somatostatin-28] | more potent than somatostatin | much more active than somatostatin | – |
| somatostatin: tetradecapeptide somatostatin characterized by Guillemin et al., U.S. Pat. No. 3,904,594 (H-AGCKNFFWKTFTSC-OH; disulfide 3-14; ends not checked; UniProt P61278 103-116, looked up) | – | – | ≤ 50 |
| CSCC[C@H](NC(=O)[C@H](C)NC(=O)[C@@H]1CCCN1C(=O)[C@H](CC(N)=O)NC(=O)[C@@H](N)CO)C(=O)N[C@@H](C)C(=O)N1CCC[C@H]1C(=O)N[C@@H](CCCNC(=N)N)C(=O)N[C@@H](CCC(=O)O)C(=O)N[C@@H](CCCNC(=N)N)C(=O)N[C@@H](CCCCN)C(=O)N[C@@H](C)C(=O)NCC(=O)N[C@H]1CSSC[C@@H](C(=O)O)NC(=O)[C@H](CO)NC(=O)[C@H]([C@@H](C)O)NC(=O)[C@H](Cc2ccccc2)NC(=O)[C@H]([C@@H](C)O)NC(=O)[C@H](CCCCN)NC(=O)[C@H](Cc2c[nH]c3ccccc23)NC(=O)[C@H](Cc2ccccc2)NC(=O)[C@H](Cc2ccccc2)NC(=O)[C@H](CC(N)=O)NC(=O)[C@H](CCCCN)NC1=O [somatostatin-25] (H-SNPAMAPRERKAGCKNFFWKTFTSC-OH; disulfide 14-25) | more potent than somatostatin | much more active than somatostatin | – |
